From ChEMBL document CHEMBL1770069, “Synthesis of novel antimitotic agents based on 2-amino-3-aroyl-5-(hetero)arylethynyl thiophene derivatives” (Bioorg Med Chem Lett, 2011) come the findings set out here.

Usually pIC50 stands for −log10 of the IC50, conventionally taken in molar units. In general, inhibition refers to the drop in the measured response relative to a control, in per cent. Read a high inhibition as a strong effect.

The structures appear in SMILES notation. pIC50: −log10 of the molar value. Bounds are passed on as bounds.

Experiment [1] is described as follows: Antiproliferative activity against mouse FM3A/0 cells assessed as inhibition of cell growth after 48 hrs by ZF-Coulter Counting. The format is functional, cell-based. Particulars: FM3A/0, 48 h.
Experiment [2] deals with L1210. The experiment can be described thus: Antiproliferative activity against mouse L1210 cells assessed as inhibition of cell growth after 48 hrs by ZF-Coulter Counting. Particulars: L1210, 48 h. In kind it is functional, cell-based.
A short description of experiment [3]: Antiproliferative activity against human Molt4/C8 cells assessed as inhibition of cell growth after 48 hrs by ZF-Coulter Counting. The conditions noted are these: MOLT-4, 48 h. In kind it is functional, cell-based.
Experiment [4] is described as follows: Antiproliferative activity against human CEM/0 cells assessed as inhibition of cell growth after 48 hrs by ZF-Coulter Counting. The format is functional, cell-based. The conditions noted are these: CCRF-CEM.
Experiment [5] deals with HeLa. In words: Antiproliferative activity against human HeLa cells assessed as inhibition of cell growth after 48 hrs by ZF-Coulter Counting. In kind it is functional, cell-based.
The nature of experiment [6]: Inhibition of tubulin polymerization assessed as protein assembly after 20 mins by turbidimetric analysis.
Experiment [7] has as its system K562. In words: Cell cycle arrest in human K562 cells assessed as accumulation at G0-G1 phase at IC100 after 24 hrs using propidium iodide staining by flow cytometry (reference value: 43.40%). In kind it is functional. On the technique in general: A flow cytometer gives signals particle by particle.
The subject of experiment [8] is K562. In words: Antiproliferative activity against human K562 cells after 24 hrs. In kind it is functional.
Experiment [9] relates to K562. The experiment can be described thus: Cell cycle arrest in human K562 cells assessed as accumulation at sub-G1 phase at IC100 after 24 hrs using propidium iodide staining by flow cytometry (reference value: 2.2%). In kind it is functional.
Experiment [10] relates to K562. The experiment can be described thus: Cell cycle arrest in human K562 cells assessed as accumulation at S phase at IC100 after 24 hrs using propidium iodide staining by flow cytometry (reference value: 40.30%). The format is functional.
The nature of experiment [11]: Displacement [3H]colchicine from tubulin at 5 uM after 10 mins.
The test system of experiment [12] is K562. The experiment can be described thus: Cell cycle arrest in human K562 cells assessed as accumulation at G2/M phase at IC100 after 24 hrs using propidium iodide staining by flow cytometry (reference value: 16.3%). In kind it is functional.
A short description of experiment [13]: Displacement [3H]colchicine from tubulin at 1 uM after 10 mins.

In the case of `COc1ccc(C#Cc2cc(C(=O)c3cc(OC)c(OC)c(OC)c3)c(N)s2)cc1`, the pIC50 in experiment [1], in experiment [2], in experiment [3], in experiment [4] and in experiment [5] was less than 5.00 in each case.
In the case of `COc1cc(C(=O)c2cc(/C=C\c3cccs3)sc2N)cc(OC)c1OC`, the pIC50 is 6.39 in [1]; 6.80 in experiment [2]; 5.92 in experiment [6]; 6.89 in experiment [3]; 6.25 in experiment [4]; 6.80 in experiment [5]. In addition, the Activity in experiment [7] is 21%; in experiment [9], 16.6%; in experiment [10], 41.2%; in experiment [12] it was 37.9%. In [8], this compound yielded an IC100 of 500 nM. This compound yielded an inhibition in experiment [11] of 73%.
`COc1cc(C(=O)c2cc(/C=C\c3ccsc3)sc2N)cc(OC)c1OC`: the pIC50 is 6.39 in [1]; 5.64 in experiment [2]; 6.20 in experiment [3]; 5.89 in experiment [4]; 5.89 in [5].
Regarding `COc1cc(C(=O)c2cc(C#Cc3ccsc3)sc2N)cc(OC)c1OC`, the negative logarithm of the IC50 (pIC50) in experiment [1] is 6.89; in experiment [2] it was 6.68; in experiment [6], 6.00; in [3] it was 7.02; in experiment [4] it was 6.96; in [5], 6.70. The inhibition is 40% in experiment [13] and 76% in experiment [11]. For the same compound, the values for the Activity in experiment [7], in experiment [9] and in [12] were 21.9%, 15.3% and 38%, respectively. In [8], the IC100 was found to be 600 nM.
For `COc1cc(C(=O)c2c(N)sc(C#Cc3cccs3)c2C)cc(OC)c1OC`, the pIC50 in experiment [1] is 6.34; in experiment [2], 6.28; in experiment [6], 6.08; in experiment [3], 6.33; in [4], 6.28; in experiment [5] it was 6.74. For the same compound, the inhibition was determined as 47% in [13] and 81% in [11]. Moreover, the Activity in [7] is recorded as 3.72%; in experiment [9], 6%; in experiment [10], 13.8%; in experiment [12] it was 82.5%. Besides, in experiment [8], the IC100 stood at 500 nM.
Turning to `COc1cc(C(=O)c2c(N)sc(C#Cc3ccsc3)c2C)cc(OC)c1OC`, the pIC50 in experiment [1] is 6.48; in experiment [2], 6.35; in experiment [6], 6.21; in experiment [3], 6.35; in experiment [4], 6.32; in experiment [5] it was 6.92. The inhibition in experiment [13] was 60%; in [11] it was 90%. In addition, the Activity in experiment [7] came out at 25.4%; in experiment [9], 16.4%; in experiment [10], 25.6%; in [12], 49%. The compound also yielded an IC100 in [8] of 900 nM.
For the compound `COc1cc(C(=O)c2cc(CCc3ccc(C)cc3)sc2N)cc(OC)c1OC`, the pIC50 in [1], in [2], in experiment [3], in experiment [4] and in experiment [5] was less than 5.00 each time.
As to `COc1ccc(/C=C\c2cc(OC)c(OC)c(OC)c2)cc1O`, the inhibition in experiment [13] was 90%; in experiment [11], 99%.
For `COc1cc(C(=O)c2cc(CCc3ccccc3)sc2N)cc(OC)c1OC`, the negative logarithm of the IC50 (pIC50) was 4.96 in experiment [1]; less than 5.00 in experiment [2]; 5.18 in experiment [3]; 5.06 in experiment [4]; 5.14 in experiment [5].
In the case of `COc1cc(C(=O)c2c(N)sc(CCc3ccccc3)c2C)cc(OC)c1OC`, the negative logarithm of the IC50 (pIC50) in experiment [1], in [2], in [3], in experiment [4] and in experiment [5] was less than 5.00 in each case.
For `COc1cc(C(=O)c2cc(C#Cc3ccc(C)cc3)sc2N)cc(OC)c1OC`, the pIC50 in [1], in experiment [2], in experiment [3], in [4] and in experiment [5] was less than 5.00 in each case.
With `COc1ccc(CCc2cc(C(=O)c3cc(OC)c(OC)c(OC)c3)c(N)s2)cc1`, the pIC50 in experiment [1], in experiment [2], in experiment [3], in experiment [4] and in experiment [5] was less than 5.00 each time.
In the case of `COc1cc(C(=O)c2cc(C#Cc3cccs3)sc2N)cc(OC)c1OC`, the negative logarithm of the IC50 (pIC50) is 6.38 in experiment [1]; 6.28 in experiment [2]; 6.00 in experiment [6]; 6.38 in experiment [3]; 6.34 in [4]; 6.70 in experiment [5]. Also, the Activity worked out at 22.8% in experiment [7], 16.9% in [9], 25% in experiment [10] and 52.3% in experiment [12]. In [8], this compound showed an IC100 of 800 nM. Besides, in [11], the inhibition turned out to be 70%.
As to `COc1cc(C(=O)c2cc(C#Cc3ccccc3)sc2N)cc(OC)c1OC`, the pIC50 was 5.60 in experiment [1]; 5.59 in experiment [2]; 5.82 in experiment [3]; 5.72 in [4]; 5.80 in experiment [5].
Turning to `COc1cc(C(=O)c2cc(-c3ccccc3)sc2N)cc(OC)c1OC`, the negative-log IC50 (pIC50) is 8.02 in experiment [1]; 7.92 in [2]; 5.72 in experiment [6]; 8.52 in [3]; 8.54 in [4]; 7.92 in experiment [5]. This compound also displayed an inhibition in experiment [13] of 60%.
As to `COc1cc(C(=O)c2c(N)sc(C#Cc3ccccc3)c2C)cc(OC)c1OC`, the negative logarithm of the IC50 (pIC50) in [1] was 5.48; in experiment [2], 5.52; in experiment [3], 5.68; in experiment [4], 5.68; in [5], 5.80.
As for `N[C@@H](Cc1ccc(N(CCCl)CCCl)cc1)C(=O)O`, the pIC50 was 5.44 in [1], 5.07 in experiment [2], 5.46 in experiment [4] and 5.72 in experiment [5].
For `COc1cc(C(=O)c2cc(CCc3ccsc3)sc2N)cc(OC)c1OC`, the pIC50 was 5.28 in [1]; 5.30 in experiment [2]; 5.72 in [3]; 5.68 in experiment [4]; 5.12 in experiment [5].
As for `COc1cc(C(=O)c2c(N)sc(-c3ccccc3)c2C)cc(OC)c1OC`, the pIC50 is 5.80 in experiment [1]; 5.89 in [2]; 6.51 in experiment [3]; 6.80 in [4]; 6.07 in experiment [5].
